Where two headings read alike, the source gives them in different places.
Assays:
α7-GlyR [1] = molecular target: T1, α7-GlyR (Homo sapiens, UniProt P36544)
5HT3-R = molecular target: T2, 5HT3-R (Homo sapiens, UniProt P46098); assay: Agonist potency at 5HT3-R; assay type: cell-based
T2 sequence (P46098 24-478): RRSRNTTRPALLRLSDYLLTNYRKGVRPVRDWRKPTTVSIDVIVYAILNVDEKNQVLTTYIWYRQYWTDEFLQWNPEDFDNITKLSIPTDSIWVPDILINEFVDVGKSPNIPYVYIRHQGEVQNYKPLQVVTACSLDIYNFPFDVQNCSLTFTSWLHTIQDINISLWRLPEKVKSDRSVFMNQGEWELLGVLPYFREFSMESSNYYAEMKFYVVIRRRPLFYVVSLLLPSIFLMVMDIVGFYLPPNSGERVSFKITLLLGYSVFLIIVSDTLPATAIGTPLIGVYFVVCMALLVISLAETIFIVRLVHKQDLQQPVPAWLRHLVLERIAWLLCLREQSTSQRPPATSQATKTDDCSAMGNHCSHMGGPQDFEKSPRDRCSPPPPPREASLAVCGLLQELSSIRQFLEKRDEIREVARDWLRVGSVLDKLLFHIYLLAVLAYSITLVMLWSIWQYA

α7-GlyR [2] = molecular target: T1, α7-GlyR; assay: cell-based
α4β2 nAChR = α4β2 nAChR (Homo sapiens, UniProt P17787+P43681); assay: Agonist potency at α4β2 nAChR
α7-5HT3 [3] = molecular target: T3, α7-5HT3 (Homo sapiens, UniProt P36544, M226I/T225I)
α7-5HT3 [4] = molecular target: T3, α7-5HT3; remark: listed apart in the source
[5] = tested on: α7GlyR G175K / A298G mutant chimeric channels; assay type: cell-based, human
α7GABAc W298A (GABAA-ρ) = assay: Agonist potency at α7GABAc channel with W298A (Table 7); assay type: cell-based, human; conditions: a7GABAc Q79G L141F W298A
[6] = tested on: mice expressing PSAM^4-GlyR unilaterally in SNr; assay: Unilateral SNr silencing rotation assay; assay type: in vivo, mouse; conditions: SNr silencing rotation assay in mice
[7] = read-out: α7-5HT3 EC50, HEK cells, Table 3

Chain of α4β2 nAChR (P43681 29-627 limits assumed): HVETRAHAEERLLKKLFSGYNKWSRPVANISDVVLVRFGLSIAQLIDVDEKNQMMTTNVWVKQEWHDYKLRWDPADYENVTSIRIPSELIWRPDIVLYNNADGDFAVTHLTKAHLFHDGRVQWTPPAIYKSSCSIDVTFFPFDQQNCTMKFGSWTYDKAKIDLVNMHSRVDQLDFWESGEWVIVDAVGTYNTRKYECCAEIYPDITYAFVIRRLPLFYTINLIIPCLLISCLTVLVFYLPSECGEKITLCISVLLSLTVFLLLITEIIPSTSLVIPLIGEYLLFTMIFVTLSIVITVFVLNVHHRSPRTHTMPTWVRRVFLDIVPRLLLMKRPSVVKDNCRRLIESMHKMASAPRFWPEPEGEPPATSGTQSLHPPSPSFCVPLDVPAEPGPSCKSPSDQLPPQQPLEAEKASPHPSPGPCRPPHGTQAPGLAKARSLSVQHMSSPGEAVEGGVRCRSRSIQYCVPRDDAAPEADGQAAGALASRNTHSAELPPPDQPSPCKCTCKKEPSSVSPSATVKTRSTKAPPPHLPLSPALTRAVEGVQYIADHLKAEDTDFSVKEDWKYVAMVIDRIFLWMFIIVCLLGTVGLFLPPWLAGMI
Chain of α4β2 nAChR (P17787 26-502): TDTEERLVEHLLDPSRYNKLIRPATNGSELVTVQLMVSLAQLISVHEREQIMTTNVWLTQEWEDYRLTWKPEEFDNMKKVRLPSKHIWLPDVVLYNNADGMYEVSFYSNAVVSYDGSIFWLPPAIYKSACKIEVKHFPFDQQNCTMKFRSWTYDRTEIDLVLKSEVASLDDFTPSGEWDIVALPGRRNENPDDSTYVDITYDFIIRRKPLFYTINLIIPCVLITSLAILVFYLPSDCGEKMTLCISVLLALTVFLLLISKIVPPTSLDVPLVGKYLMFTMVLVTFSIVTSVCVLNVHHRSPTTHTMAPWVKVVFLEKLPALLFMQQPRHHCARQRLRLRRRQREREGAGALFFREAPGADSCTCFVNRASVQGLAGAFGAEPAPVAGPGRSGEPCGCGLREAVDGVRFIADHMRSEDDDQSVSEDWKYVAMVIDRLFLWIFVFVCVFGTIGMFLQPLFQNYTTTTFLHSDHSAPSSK
T1 sequence (P36544 with tags, fused parts or gaps): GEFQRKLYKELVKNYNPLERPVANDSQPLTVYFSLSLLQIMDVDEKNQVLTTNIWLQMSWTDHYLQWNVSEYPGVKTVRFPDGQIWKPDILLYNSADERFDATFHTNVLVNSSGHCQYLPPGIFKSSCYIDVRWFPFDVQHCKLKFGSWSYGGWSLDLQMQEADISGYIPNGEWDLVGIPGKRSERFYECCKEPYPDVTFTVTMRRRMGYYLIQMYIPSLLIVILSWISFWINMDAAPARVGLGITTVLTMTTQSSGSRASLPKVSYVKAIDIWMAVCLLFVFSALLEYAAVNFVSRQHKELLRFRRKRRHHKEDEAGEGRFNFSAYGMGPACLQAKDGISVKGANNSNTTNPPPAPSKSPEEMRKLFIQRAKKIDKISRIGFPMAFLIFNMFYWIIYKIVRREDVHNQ
T3 sequence (P36544 with tags, fused parts or gaps T225I/M226I limits assumed): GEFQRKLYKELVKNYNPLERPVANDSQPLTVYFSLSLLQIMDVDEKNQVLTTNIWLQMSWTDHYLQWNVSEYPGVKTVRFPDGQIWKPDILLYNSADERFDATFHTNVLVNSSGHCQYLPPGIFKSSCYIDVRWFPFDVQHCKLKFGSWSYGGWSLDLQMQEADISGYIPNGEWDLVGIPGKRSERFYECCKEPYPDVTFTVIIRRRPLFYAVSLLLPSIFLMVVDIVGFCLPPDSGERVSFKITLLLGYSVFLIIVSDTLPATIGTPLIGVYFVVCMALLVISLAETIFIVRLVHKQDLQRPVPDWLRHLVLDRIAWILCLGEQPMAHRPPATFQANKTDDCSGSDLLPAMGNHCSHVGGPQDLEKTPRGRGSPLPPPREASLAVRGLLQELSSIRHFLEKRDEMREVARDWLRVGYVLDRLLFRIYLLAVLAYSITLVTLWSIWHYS

SMILES	EC50 (α7-GlyR [2])	EC50 (α4β2 nAChR; […], α4β2 nAChR, Table 10)	EC50 (5HT3-R; 5HT3-R, Table 10)	EC50 (α7-5HT3 [3])	further results
COc1cnc2cc3c(cc2n1)C1CNCC3C1 (centres unmarked) [compound 793]					EC50 (α7-GlyR [1]): 19 µM; EC50 (5HT3-R): 0.19 µM
c1ccn(-c2cnc3cc4c(cc3n2)C2CNCC4C2)c1 (centres unmarked) [compound 799]	> 100 µM	3.5 µM	11.7 µM		
FC(F)(F)c1cnc2cc3c(cc2n1)C1CNCC3C1 (centres unmarked) [compound 788]	> 100 µM	> 30 µM	41 µM	> 100 µM	
O=C(N[C@@H]1CN2CCC1CC2)c1ccc(C(F)(F)F)cn1 [compound 0295]					EC50 (α7-GlyR [1]): > 100 µM; EC50 (α7-5HT3 [4]; [7]): > 100 µM
O=C(Nc1ccccc1)N[C@@H]1CN2CCC1CC2 [compound 0353]					EC50 (α7-GlyR [1]): 0.27 µM; EC50 (α7-5HT3 [4]; [7]): 0.65 µM
Cc1nc2cc3c(cc2nc1-c1ccncc1)C1CNCC3C1 (centres unmarked) [compound 803]	> 30 µM				EC50 (α4β2 nAChR; […]): 14 µM; EC50 (5HT3-R; […], 5HT3-R, Table 10): 0.75 µM
c1ncn(-c2cnc3cc4c(cc3n2)C2CNCC4C2)n1 (centres unmarked) [compound 801]	> 30 µM	26 µM	4.4 µM		
Cc1nc2cc3c(cc2n(C)c1=O)C1CNCC3C1 (centres unmarked) [compound 790]	> 100 µM	> 30 µM	4.3 µM	> 100 µM	
O=c1cccc2n1C[C@@H]1CNC[C@H]2C1 [Cytisine]					EC50 ([5]; read-out: Agonist potency; α7GlyR Q79G A298G G175K Y115F): 4.6 µM; EC50 ([5]; read-out: Agonist potency; α7GlyR Q79G A298G P216I): 5.5 µM; EC50 ([5]; read-out: Agonist potency; α7GlyR Q79G A298G Y115F K395 K396A): > 30 µM; EC50 ([5]; read-out: Agonist potency; α7GlyR Q79G G175K A298G): 0.134 µM; EC50 ([5]; read-out: Agonist potency; α7GlyR Q79G W77F A298G): 14.1 µM; EC50 ([5]; read-out: Agonist potency; α7GlyR R27D E41R Q79G Y115F): > 30 µM; EC50 (α7GABAc W298A (GABAA-ρ)): 13.3 µM
c1cncc(-c2nc3cc4c(cc3[nH]2)C2CNCC4C2)c1 (centres unmarked) [compound 786, 2-(pyridin-3-yl)-1,5,6,7,8,9-hexahydro-5,9-methanoimidazo[4′,5′:4,5]benzo[1,2-d]azepine]	> 100 µM			> 100 µM	
Cc1nc2cc3c(cc2nc1Cn1cccn1)C1CNCC3C1 (centres unmarked) [compound 812]	> 100 µM	> 100 µM	11 µM	> 100 µM	
O=C(NC1C2CCN(CC2)C1Cc1cccnc1)c1ccc(C(F)(F)F)cc1 (mixture of isomers) [compound 0436]					EC50 (α7-GlyR [1]): 0.31 µM; EC50 (α7-5HT3 [4]; [7]): 0.84 µM
CN1C2CCC1CC(NC(=S)c1c[nH]c3ccccc13)C2 (centres unmarked) [compound 0542]					EC50 (α7-5HT3 [4]; [7]): 3.8 µM
c1c2c(cc3nc4c(nc13)CCCC4)C1CNCC2C1 [compound 785]	> 100 µM		10.2 µM		
c1cncc(-c2cnc3cc4c(cc3n2)C2CNCC4C2)c1 (centres unmarked) [compound 804]	> 30 µM				EC50 (α4β2 nAChR; […]): 4.8 µM; EC50 (5HT3-R; […], 5HT3-R, Table 10): 2 µM
Cc1nc2cc3c(cc2[nH]c1=O)C1CNCC3C1 (centres unmarked) [compound 783]	> 100 µM		0.43 µM		EC50 (α4β2 nAChR; […]): 43 µM
CCOc1cnc2cc3c(cc2n1)C1CNCC3C1 (centres unmarked) [compound 815]					EC50 (α7-GlyR [1]): > 100 µM; α4β2 nAChR agonism (α4β2 nAChR): do not show evident α4β2 nAChR agonism; EC50 (α4β2 nAChR; read-out: EC50MP): > 30 µM; In vivo potency [6]: 0.1 mpk; EC50 (α7-5HT3 [4]; read-out: EC50MP): > 100 µM
S=C(Nc1ccc(Cl)cc1)NC1CN2CCC1CC2 (centres unmarked) [compound 0354]					partial agonist activity (α7-5HT3 [4]; HEK cells, Table 3): 1.4 partial
Cc1nc2cc3c(cc2nc1Cn1cncn1)C1CNCC3C1 (centres unmarked) [compound 807]	> 30 µM	> 30 µM	0.57 µM	> 30 µM	

SMILES	EC50 (α7-GlyR [2])	EC50 (α4β2 nAChR; […], α4β2 nAChR, Table 10)	EC50 (5HT3-R; 5HT3-R, Table 10)	EC50 (α7-5HT3 [3])	further results
c1cn(-c2cnc3cc4c(cc3n2)C2CNCC4C2)cn1 (centres unmarked) [compound 800]	> 30 µM	13.9 µM	3.5 µM		
Cc1nc2cc3c(cc2nc1-n1ccnc1)C1CNCC3C1 (centres unmarked) [compound 798]	> 30 µM	28 µM	1.1 µM	> 30 µM	
Cc1nc2cc3c(cc2nc1N(C)C)C1CNCC3C1 (centres unmarked) [compound 794]	> 30 µM	> 30 µM	1.7 µM		
Cc1ccccc1-c1cnc2cc3c(cc2n1)C1CC3CN(C)C1 (centres unmarked) [compound 782]	> 100 µM		> 30 µM	> 100 µM	
O=C(NC1CN2CCC1CC2)c1ccc(C(F)(F)F)nc1 (centres unmarked) [compound 0296]					EC50 (α7-5HT3 [4]; [7]): > 100 µM
COc1nc2cc3c(cc2nc1-c1ccccc1)C1CNCC3C1 (centres unmarked) [compound 789]	> 100 µM	> 30 µM	0.51 µM	> 100 µM	
Cc1ccccc1-c1cnc2cc3c(cc2n1)C1CNCC3C1 (centres unmarked) [compound 780]	> 100 µM			10.6 µM	
COc1ccc(OC)c(C(=O)NC2C3CCN(CC3)C2Cc2cccnc2)c1 (mixture of isomers) [compound 0434]					EC50 (α7-GlyR [1]): > 10 µM; EC50 (α7-5HT3 [4]; [7]): > 10 µM
Cc1nc2cc3c(cc2nc1-c1cccnc1)C1CNCC3C1 (centres unmarked) [compound 802]	> 30 µM				EC50 (α4β2 nAChR; […]): > 30 µM; EC50 (α4β2 nAChR; potency for α4β2 nAChR): > 10 µM; EC50 (5HT3-R; […], 5HT3-R, Table 10): 1.5 µM; EC50 (5HT3-R; potency for 5HT3-R): > 1 µM
CN1C2CCCC1CC(NC(=O)c1nn(C)c3ccccc13)C2 (centres unmarked) [Granisetron, reference compound]					activation of channel (α7-5HT3 [4]): does not activate
c1cc(-c2cnc3cc4c(cc3n2)C2CNCC4C2)ccn1 (centres unmarked) [compound 805]	> 30 µM				EC50 (α4β2 nAChR; […]): 4.9 µM; EC50 (5HT3-R; […], 5HT3-R, Table 10): 1 µM
Clc1ccc(C2CC3CCC2N3)cn1 (centres unmarked) [Epibatidine]					EC50 ([5]; α7GlyR Q79G A298G G175K Y115F; read-out: Agonist potency): 0.011 µM; EC50 ([5]; α7GlyR Q79G A298G P216I; read-out: Agonist potency): 0.05 µM; EC50 ([5]; α7GlyR Q79G A298G Y115F K395 K396A; read-out: Agonist potency): 0.15 µM; EC50 ([5]; α7GlyR Q79G G175K A298G; read-out: Agonist potency): 0.0023 µM; EC50 ([5]; α7GlyR Q79G W77F A298G; read-out: Agonist potency): 0.37 µM; EC50 ([5]; α7GlyR R27D E41R Q79G Y115F; read-out: Agonist potency): 0.267 µM; EC50 (α7GABAc W298A (GABAA-ρ)): 0.42 µM
O=c1[nH]c2cc3c(cc2nc1-c1ccccc1)C1CNCC3C1 (centres unmarked) [compound 784]	> 30 µM		6.2 µM	> 30 µM	
COc1nc2cc3c(cc2nc1C)C1CNCC3C1 (centres unmarked) [compound 791]	> 30 µM	> 30 µM	0.17 µM		
Cn1c(=O)cnc2cc3c(cc21)C1CNCC3C1 (centres unmarked) [compound 792]			40.5 µM	> 30 µM	EC50 (α7-GlyR [1]): > 30 µM
O=C(N[C@@H]1CN2CCC1CC2)c1c[nH]c2ccccc12 [compound 0676]					EC50 (α7-5HT3 [4]; [7]): 0.03 µM
CCN(CC)c1nc2cc3c(cc2nc1C)C1CNCC3C1 (centres unmarked) [compound 795]	> 30 µM	> 30 µM	1.1 µM		EC50 (α4β2 nAChR; potency for α4β2 nAChR): > 10 µM; EC50 (5HT3-R; read-out: potency for 5HT3-R): > 1 µM
Cc1nc2cc3c(cc2nc1-n1cncn1)C1CNCC3C1 (centres unmarked) [compound 808]	> 30 µM	> 30 µM	12.5 µM	> 30 µM	EC50 (α4β2 nAChR; potency for α4β2 nAChR): > 10 µM; EC50 (5HT3-R; read-out: potency for 5HT3-R): > 1 µM
